The text below walks through data of US20100183669A1, “Mannose immunogens for HIV-1” (University of Oxford, priority 2005, published 2010).

One experiment concerns monoclonal antibody 2G12. Nature of the experiment: 2G12 sandwich ELISA of gp120 from CHO cells grown with or without kifunensine. Particulars: for binding to the monoclonal antibody 2G12 in ELISA: gp120 produced in CHO cells in the presence of kifunensine, compared with absence. The format is binding. The method, then:
To investigate the role of mannosidase inhibition, by kifunensine, on the formation of the 2G12 epitope, Chinese Hamster Ovary (CHO) cells, transfected with EE6HCMV gp120GS, secreting recombinant HIV-IIIB gp120, were cultured in CB2 DMEM Base culture medium supplemented with foetal calf serum (10%), penicillin (50 U/ml) and streptomycin (50 ^1g/ml). All reagents were obtained from Gibco Ltd, Uxbridge, UK. High expression of gp120 was maintained by the addition of methionine sulphoximine (200 nM). Cells were grown in the presence and absence kifunensine (see FIG. 1A, 1B).
Glycoproteins were immobilized on plastic protein-binding plates. For the first experiment (FIG. 1A) 2G12 (5 ug/ml) was coated onto plate, left overnight at 4° C. Plates were then blocked with Bovine Serum albumin (3% w/v) for one hour. Subsequently, supernatant from gp120IIIB expressing CHO cells (with or without kifunensine) was added for one hour, at room temperature. Plates were then washed 3 times in PBS. 2G12 (titration from 10 yg/ml) was then added. After washing 2g12 binding was determined by phosphatase-conjugated anti-IgG secondary antibody, a final wash step and then phosphatase substrate measurement (p-nitrophenylphosphate, absorbance at 405 nm).
(§1) BSA (x) was used in these experiments as a negative control.

For experiment [1], the system named is 2G12. Put plainly: Double antibody (b12/2G12) ELISA of gp120 captured with anti-gp120 antibody D7324. The format is binding. Particulars: gp120 produced with 5 μM kifunensine compared with double antibody ELISA of untreated gp120, FIG. 1 panel B.
Excerpt: Binding of gp120, and measurement of b12/2G12 was again determined by phosphatase-conjugated anti-IgG secondary antibody.
as §1

Experiment [2] deals with ER- and Golgi-resident class I α-mannosidases. Particulars: relative to DMJ; cited from earlier work.
In experiment [3] the test system is 2G12. Nature of the experiment: 2G12 binding ELISA of self glycoproteins CD48 and RPTPmu expressed in HEK293T cells with kifunensine. Particulars: glycoproteins expressed in HEK293T cells with 5 μM kifunensine, FIG. 4. The method, then: The aim of this study is to generate ‘self’ glycoproteins bearing oligomannose glycans which bind a 2G12 antibody and consequently display antigenic cross-reactivity with the HIV gp120. Two target glycoproteins, CD48 and Receptor Protein Tyrosine Phosphates mu (RPTPmu) were expressed in HEK293T cells in the presence of the mannosidase inhibitor kifunensine at 5 μM concentration. To verify that the mannosidase inhibitor was effective in producing glycoprotein containing oligomannose glycans, the glycans were released by digestion with protein N-glycanase F (PNGase F) and were then analysed by high-performance liquid chromatography (HPLC) and matrix assisted laser desorption/ionisation mass spectrometry (MALDI-MS).
The resulting glycoproteins containing oligomannose-type N-linked glycans were tested for 2G12 binding by ELISA (FIG. 4). Particularly, 15.6 μg of CD48, 2 μg, 1 μg and 0.4 μg of RPTPmu were plated and 1 μg of non-kifunensine treated IgG was plated as a negative control.
(In general: In an ELISA, binding on a coated surface is turned into a signal by an enzyme label.)

Take “kifunensine treated gp120: HIV-1IIIB gp120 glycoprotein produced in a CHO stable cell line in the presence of kifunensine”: in the experiment with monoclonal antibody 2G12 (gp120 expressed in the presence of kifunensine), the “number of 2G12 molecules able to bind to a single gp120 molecule” value is reported as “at least two”. Besides, the “binding to the monoclonal antibody 2G12 in ELISA” value is reported as “dramatically enhanced” with monoclonal antibody 2G12 (expressed in the presence of kifunensine) and “higher binding” with monoclonal antibody 2G12 (produced in the presence of kifunensine). In the experiment on monoclonal antibody 2G12 (gp120 produced in the presence of kifunensine, two 2G12 ELISA binding assays), the “additional 2G12 binding sites on each molecule of gp120” value is given as “at least one additional 2G12 binding site”. The “proportion of gp120 molecules able to simultaneously bind two or more 2G12 antibody molecules” value in the experiment on monoclonal antibody 2G12 (sandwich ELISA, 0-5 μM kifunensine, FIG. 1 panel A) is given as “a higher proportion”. Besides, the “distinct epitopes for 2G12” value in the experiment on 2G12 [1] is “two distinct epitopes”.

With `O=C1N[C@@H]2[C@@H](O)[C@@H](O)[C@H](O)[C@@H](CO)N2C1=O` [kifunensine], in experiment [2], the “concentration to effect mannosidase inhibition, lower than DMJ” value is 1000 fold.

For “CD48: self glycoprotein expressed in HEK293T cells in the presence of 5 μM kifunensine, bearing oligomannose glycans”, in the experiment with 2G12 [3], the “2G12 binding by ELISA” value is listed as “can bind to 2G12”.

As to “RPTPmu: self glycoprotein expressed in HEK293T cells in the presence of 5 μM kifunensine, bearing oligomannose glycans”, in the experiment on 2G12 [3], the “2G12 binding by ELISA” value is “can bind to 2G12”.
